According to ChEMBL document CHEMBL4368885, “Quinolone-isoniazid hybrids: synthesis and preliminary in vitro cytotoxicity and anti-tuberculosis evaluation” (Medchemcomm, 2019):
In brackets after ≈: the same amount, converted by molar mass.

Tests used:
[1] = Cytotoxicity against human HeLa cells assessed as cell viability at 20 uM after 24 hrs by resazurin dye-based fluorescence assay relative to control; conditions: read-out: Activity
[2] = test system: Mycobacterium tuberculosis; experiment: microbe, parasite or virus in culture; conditions: H37Rv
Description: Antitubercular activity against Mycobacterium tuberculosis H37Rv after 7 to 14 days by broth micro dilution method

[3] = Aqueous solubility in pH 6.5 PBS at 10 to 220 uM after 20 hrs by nephelometric analysis; format: physicochemical
[4] = Metabolic stability in pooled human liver microsomes assessed as percentage of compound remaining at 1 uM by LC-MS/MS analysis; format: ADME, Microsome; conditions: read-out: Stability
[5] = Metabolic stability in rat liver microsomes assessed as percentage of compound remaining at 1 uM by LC-MS/MS analysis; format: ADME, Microsome; conditions: read-out: Stability
[6] = Metabolic stability in mouse liver microsomes assessed as percentage of compound remaining at 1 uM by LC-MS/MS analysis; format: ADME, Microsome; conditions: read-out: Stability
[7] = Intrinsic clearance in pooled human liver microsomes assessed per mg protein at 1 uM by LC-MS/MS analysis; format: ADME, Microsome
[8] = Intrinsic clearance in rat liver microsomes assessed per mg protein at 1 uM by LC-MS/MS analysis; format: ADME, Microsome
[9] = Intrinsic clearance in mouse liver microsomes assessed per mg protein at 1 uM by LC-MS/MS analysis; format: ADME, Microsome
[10] = Half life in pooled human liver microsomes at 1 uM by LC-MS/MS analysis; format: ADME, Microsome
[11] = Half life in rat liver microsomes at 1 uM by LC-MS/MS analysis; format: ADME, Microsome
[12] = Half life in mouse liver microsomes at 1 uM by LC-MS/MS analysis; format: ADME, Microsome
[13] = Hepatic extraction ratio in pooled human liver microsomes at 1 uM by LC-MS/MS analysis; format: ADME, Microsome; conditions: read-out: ERH
[14] = Hepatic extraction ratio in rat liver microsomes at 1 uM by LC-MS/MS analysis; format: ADME, Microsome; conditions: read-out: ERH
[15] = Hepatic extraction ratio in mouse liver microsomes at 1 uM by LC-MS/MS analysis; format: ADME, Microsome; conditions: read-out: ERH
HeLa = experiment: Cytotoxicity against human HeLa cells assessed as reduction in cell viability after 24 hrs by resazurin dye-based fluorescence assay

Row | Compound | viability at 24 h, 20 µM [1] [%] | MIC90 [2] [µM] | further results
1 | C/C(=N\NC(=O)c1ccncc1)c1ccc2c(c1)c(=O)c(C(=O)NCCOCCO)cn2Cc1ccc(Br)cc1 | < 75 | 2.7 (≈ 1.64 µg/mL) | –
2 | C/C(=N\NC(=O)c1ccncc1)c1ccc2c(c1)c(=O)c(C(=O)NCCNCCO)cn2Cc1ccccc1 | < 75 | 2 (≈ 1.05 µg/mL) | –
3 | C/C(=N\NC(=O)c1ccncc1)c1ccc2c(c1)c(=O)c(C(=O)NCCNCCO)cn2Cc1ccc(C(F)(F)F)cc1 | < 75 | 1.8 (≈ 1.07 µg/mL) | –
4 | CCn1cc(C(=O)NCCOC)c(=O)c2cc(/C(C)=N/NC(=O)c3ccncc3)ccc21 | < 75 | 0.8 (≈ 0.348 µg/mL) | solubility kinetic at 20 h [3]: 95 µM (≈ 41.4 µg/mL); remaining at 1 µM [4]: 90.6%; remaining at 1 µM [5]: 87%; remaining at 1 µM [6]: 77%; CLH [7]: 13.3 µg/min; CLH [8]: 18.7 µg/min; CLH [9]: 35.3 µg/min; half-life at 1 µM [10]: > 2.5 h; half-life at 1 µM [11]: > 2.5 h; half-life at 1 µM [12]: 1.33 h; hepatic extraction ratio at 1 µM [13]: < 0.42; hepatic extraction ratio at 1 µM [14]: < 0.3; hepatic extraction ratio at 1 µM [15]: < 0.49
5 | COCCNC(=O)c1cn(Cc2ccc(Cl)cc2Cl)c2ccc(/C(C)=N/NC(=O)c3ccncc3)cc2c1=O | < 75 | 4.8 (≈ 2.72 µg/mL) | –
6 | CC(=O)c1ccc2c(c1)c(=O)c(C(=O)NCCNCCO)cn2Cc1ccc(Cl)cc1Cl | < 75 | 125 (≈ 59.5 µg/mL) | –
7 | CCOC(=O)c1cn(CC)c2ccc(/C(C)=N/NC(=O)c3ccncc3)cc2c1=O | < 75 | 0.2 (≈ 0.0813 µg/mL) | –
8 | CCOC(=O)c1cn(C)c2ccc(/C(C)=N/NC(=O)c3ccncc3)cc2c1=O | < 75 | 0.9 (≈ 0.353 µg/mL) | –
9 | CCn1cc(C(=O)NCCCn2ccnc2)c(=O)c2cc(/C(C)=N/NC(=O)c3ccncc3)ccc21 | < 75 | 7.8 (≈ 3.79 µg/mL) | –
10 | C/C(=N\NC(=O)c1ccncc1)c1ccc2c(c1)c(=O)c(C(=O)NCCNCCO)cn2Cc1ccc(Br)cc1 | < 75 | 0.8 (≈ 0.484 µg/mL) | –
11 | COCCNC(=O)c1cn(Cc2ccccc2)c2ccc(C(C)=O)cc2c1=O | < 75 | 43.4 (≈ 16.4 µg/mL) | –
12 | CC[C@H]1CN2CCc3cc(OC)c(OC)cc3[C@@H]2C[C@@H]1C[C@H]1NCCc2cc(OC)c(OC)cc21 [EMETINE] | – | – | IC50 (HeLa): 15 nM
13 | NNC(=O)c1ccncc1 [ISONIAZID] | – | 0.2 (≈ 0.0274 µg/mL) | –
14 | CO[C@H]1/C=C/O[C@@]2(C)Oc3c(C)c(O)c4c(O)c(c(/C=N/N5CCN(C)CC5)c(O)c4c3C2=O)NC(=O)/C(C)=C\C=C\[C@H](C)[C@H](O)[C@@H](C)[C@@H](O)[C@@H](C)[C@H](OC(C)=O)[C@@H]1C [RIFAMPIN] | – | 0.06 (≈ 0.0494 µg/mL) | –
